Patent US12134620B2 (ARAXES PHARMA LLC, priority 2018, dated 2024)

Molecular target: T1, KRAS G12C 1-169, his-tagged protein, GDP-loaded (Homo sapiens, UniProt P01116, G12C)
T1 construct: KRAS G12C 1-169, his-tagged protein, GDP-loaded; His tag
Assay: Biochemical assay: covalent modification of KRAS G12C, analysed by mass spectrometry (RapidFire/TOF or Q-Exactive)
Assay type: binding
Settings: Modification activity, modification percentage from MS peak intensities
Procedure: Test compounds are prepared as 10 mM stock solutions in DMSO (Fisher cat. #BP-231-100). KRAS G12C 1-169, his-tagged protein, GDP-loaded is diluted to 2 μM or 0.5 μM in buffer (20 mM Hepes, 150 mM NaCl, 1 mM MgCl2). Compounds are tested for activity as follows:
Compounds are diluted to 50× final test concentration in DMSO in 96-well storage plates. Compound stock solutions are vortexed before use and observed carefully for any sign of precipitation. Dilutions are as follow: • For 32 μM final compound concentration, compounds are diluted to 1600 μM (3 μL 10 mM compound stock+15.75 μL DMSO and mixed well by pipetting. • For 8 μM final compound concentration, compounds are diluted to 400 μM (2 μL 10 mM compound stock+48 μL DMSO) and mixed well by pipetting. 49 μL of the stock protein solution is added to each well of a 96-well PCR plate (Fisher cat #1423027). 1 μl of the diluted 50× compounds are added to appropriate wells in the PCR plate using 12-channel pipettor. Reactions are mixed carefully and thoroughly by pipetting up/down with a 200 μL multi-channel pipettor. The plate is sealed well with aluminum plate seal, and protein and compound are allowed to react for a desired amount of time. 5 μL of 2% formic acid (Fisher cat #A117) in de-ionized H2O is then added to each well followed by mixing with a pipette to quench the reaction. The plate is then resealed with aluminum seal and stored frozen on dry ice until analyzed as described below.
The above described assays are analyzed by mass spectrometry according to one of the following two procedures:
The MS instrument is set to positive polarity, 2 GHz resolution, and low mass (1700) mode and allowed to equilibrate for 30 minutes. The instrument is then calibrated, switched to acquisition mode and the appropriate method loaded.
After another 30 minute equilibration time, a blank batch (i.e., buffer) is run to ensure equipment is operating properly. The samples are thawed at 37° C. for 10 minutes, briefly centrifuged, and transfer to the bench top. Wells A1 and H12 are spiked with 1 μL 500 μM internal standard peptide, and the plates centrifuged at 2000×g for 5 minutes. The method is then run and masses of each individual well recorded.
The masses (for which integration data is desired) for each well are pasted into the platemap and exported from the analysis. Masses for the internal standards are exported as well. The data at 50 ppm is extracted for the +19 charge state, and identity of well A1 is assigned using the internal standard spike and integrated. Peak data is exported as a TOF list and the above steps are repeated individually, for the +20, +21, +22, +23, +24, and +25 charge states.
The masses and peak intensities of KRAS G12C protein species are measured using a Dionex RSLCnano system (Thermo Scientific) connected to a Q Exactive Plus mass spectrometer (Thermo Scientific).
20 μL of sample is each loaded onto a Aeris™ 3.6 μm WIDEPORE C4 200 Å, LC Column 50×2.1 mm column maintained at 40° C. at a flow rate of 600 μL/min with 80% Solvent A (0.1% formic acid in H2O) and 20% Solvent B (0.1% formic acid in acetonitrile). The liquid chromatography conditions are 20% solvent B for 1 minute, 20% to 60% solvent B for 1.5 minutes, 60% to 90% solvent for 0.5 minute, 90% solvent B for 0.2 minute, 90% to 20% solvent B for 0.2 minute, and then equilibrated for 1.6 minute before the following sample injection. The flow rate is maintained at 600 μL/min throughout the sample analysis.
The mass spectrometer is operated in profile mode at a resolution of 17500, 5 microscans, using 50 msec max injection time and an AGC target of 1×10^6, and a full mass range from 800-1850 m/z is recorded. The intact protein mode is applied for optimal ion transfer and maximum sensitivity. The ionization method is electrospray ionization, which used a spray voltage of 4 kV, sheath gas flow set to 50 AU, auxiliary gas flow set to 10 AU and sweep gas flow set to 1 AU. […]

Compound	Binding %
C=CC(=O)N1CC2(CCN(c3nc(N4CCCC4)nc(-c4c(C)ccc5[nH]ncc45)c3C#N)C2)C1 [Compound I-1, 4-(2-acryloyl-2,6-diazaspiro[3.4]octan-6-yl)-6-(5-methyl-1H-indazol-4-yl)-2-(pyrrolidin-1-yl)pyrimidine-5-carbonitrile]	+++ (+++ indicates binding activity greater than 85%)
C=CC(=O)N1CC2(CCN(c3nc(OC[C@@H]4CCCN4C)nc(-c4c(C)ccc5[nH]ncc45)c3C#N)C2)C1 [Compound I-2, 4-(2-acryloyl-2,6-diazaspiro[3.4]octan-6-yl)-6-(5-methyl-1H-indazol-4-yl)-2-(((S)-1-methylpyrrolidin-2-yl)methoxy)pyrimidine-5-carbonitrile]	+++ (+++ indicates binding activity greater than 85%)
C=CC(=O)N1CC2(CCN(c3nc(N4CCOCC4)nc(-c4c(C)ccc5[nH]ncc45)c3C#N)C2)C1 [Compound I-3, 4-(2-acryloyl-2,6-diazaspiro[3.4]octan-6-yl)-6-(5-methyl-1H-indazol-4-yl)-2-morpholinopyrimidine-5-carbonitrile]	+++ (+++ indicates binding activity greater than 85%)
C=CC(=O)N1CC2(CCN(c3nc(N4CC(N(C)C)C4)nc(-c4c(C)ccc5[nH]ncc45)c3C#N)C2)C1 [Compound I-4, 4-(2-acryloyl-2,6-diazaspiro[3.4]octan-6-yl)-2-(3-(dimethylamino)azeti-din-1-yl)-6-(5-methyl-1H-indazol-4-yl)pyrimidine-5-carbonitrile]	+++ (+++ indicates binding activity greater than 85%)
C=CC(=O)N1CC2(CCN(c3nc(OCCCN(C)C)nc(-c4c(C)ccc5[nH]ncc45)c3C#N)C2)C1 [Compound I-5, 4-(2-acryloyl-2,6-diazaspiro[3.4]octan-6-yl)-2-(3-(dimethylamino)pro-poxy)-6-(5-methyl-1H-indazol-4-yl)pyrimidine-5-carbonitrile]	+++ (+++ indicates binding activity greater than 85%)
C=CC(=O)N1CC2(CCN(c3nc(OC[C@H]4CCCN4C)nc(-c4c(C)ccc5[nH]ncc45)c3C#N)C2)C1 [Compound I-6, 4-(2-acryloyl-2,6-diazaspiro[3.4]octan-6-yl)-6-(5-methyl-1H-indazol-4-yl)-2-(((R)-1-methylpyrrolidin-2-yl)methoxy)pyrimidine-5-carbonitrile]	+++ (+++ indicates binding activity greater than 85%)
C=CC(=O)N1CC2(CCN(c3nc(OCCc4ccccn4)nc(-c4c(C)ccc5[nH]ncc45)c3C#N)C2)C1 [Compound I-8, 4-(2-acryloyl-2,6-diazaspiro[3.4]octan-6-yl)-6-(5-methyl-1H-indazol-4-yl)-2-(2-(pyridin-2-yl)ethoxy)pyrimidine-5-carbonitrile]	+++ (+++ indicates binding activity greater than 85%)
C=CC(=O)N1CC2(CCN(c3nc(C#N)nc(-c4c(C)ccc5[nH]ncc45)c3C#N)C2)C1 [Compound I-10, 4-(2-acryloyl-2,6-diazaspiro[3.4]octan-6-yl)-6-(5-methyl-1H-indazol-4-yl)pyrimidine-2,5-dicarbonitrile]	++ (++ indicates binding activity from 50 to 85%)
C=CC(=O)N1CC2(CCN(c3nc(-n4ccnc4)nc(-c4c(C)ccc5[nH]ncc45)c3C#N)C2)C1 [Compound I-11, 4-(2-acryloyl-2,6-diazaspiro[3.4]octan-6-yl)-2-(1H-imidazol-1-yl)-6-(5-methyl-1H-indazol-4-yl)pyrimidine-5-carbonitrile]	+++ (+++ indicates binding activity greater than 85%)
C=CC(=O)N1CC2(CCN(c3nc(OCCN4CCCC4)nc(-c4c(C)ccc5[nH]ncc45)c3C#N)C2)C1 [Compound I-12, 4-(2-acryloyl-2,6-diazaspiro[3.4]octan-6-yl)-6-(5-methyl-1H-indazol-4-yl)-2-(2-(pyrrolidin-1-yl)ethoxy)pyrimidine-5-carbonitrile]	++ (++ indicates binding activity from 50 to 85%)
C=CC(=O)N1CC2(CCN(c3nc(OC[C@@H]4CCCN4C)nc(N4CCCC(O)C4)c3C#N)C2)C1 (stereo partly drawn) [Compound I-13, 4-(2-acryloyl-2,6-diazaspiro[3.4]octan-6-yl)-6-(3-hydroxypiperidin-1-yl)-2-(((S)-1-methylpyrrolidin-2-yl)methoxy)pyrimidine-5-carbonitrile]	+ (+ indicates binding activity greater than 0% and up to 50%)
C=CC(=O)N1CC2(CCN(c3nc(OCCc4ncccn4)nc(-c4c(C)ccc5[nH]ncc45)c3C#N)C2)C1 [Compound I-14, 4-(2-acryloyl-2,6-diazaspiro[3.4]octan-6-yl)-6-(5-methyl-1H-indazol-4-yl)-2-(2-(pyrimidin-2-yl)ethoxy)pyrimidine-5-carbonitrile]	++ (++ indicates binding activity from 50 to 85%)
C=CC(=O)N1CC2(CCN(c3nc(OCc4ccccn4)nc(-c4c(C)ccc5[nH]ncc45)c3C#N)C2)C1 [Compound I-15, 4-(2-acryloyl-2,6-diazaspiro[3.4]octan-6-yl)-6-(5-methyl-1H-indazol-4-yl)-2-(pyridin-2-ylmethoxy)pyrimidine-5-carbonitrile]	+++ (+++ indicates binding activity greater than 85%)
C=CC(=O)N1CC2(CCN(c3nc(OC[C@@H]4CCCN4C)nc(-c4ccccc4C(F)(F)F)c3C#N)C2)C1 [Compound I-16, (S)-4-(2-acryloyl-2,6-diazaspiro[3.4]octan-6-yl)-2-((1-methylpyrrolidin-2-yl)methoxy)-6-(2-(trifluoromethyl)phe-nyl)pyrimidine-5-carbonitrile]	+ (+ indicates binding activity greater than 0% and up to 50%)
C=CC(=O)N1CC2(CCN(c3nc(OC[C@@H]4CCCN4C)nc(-c4cccc5c4OC(F)(F)O5)c3C#N)C2)C1 [Compound I-17, (S)-4-(2-acryloyl-2,6-diazaspiro[3.4]octan-6-yl)-6-(2,2-difluorobenzo[d][1,3]dioxol-4-yl)-2-((1-methylpyrrolidin-2-yl)methoxy)pyrimidine-5-carbonitrile]	+ (+ indicates binding activity greater than 0% and up to 50%)
C=CC(=O)N1CC2(CCN(c3nc(OC[C@@H]4CCCN4C)nc(NCc4cccnc4)c3C#N)C2)C1 [Compound I-18, (S)-4-(2-acryloyl-2,6-diazaspiro[3.4]octan-6-yl)-2-((1-methylpyrrolidin-2-yl)methoxy)-6-((pyridin-3-ylmethyl)amino)pyri-midine-5-carbonitrile]	+ (+ indicates binding activity greater than 0% and up to 50%)
C=CC(=O)N1CC2(CCN(c3nc(Oc4cnn(C)c4)nc(-c4c(C)ccc5[nH]ncc45)c3C#N)C2)C1 [Compound I-19, 4-(2-acryloyl-2,6-diazaspiro[3.4]octan-6-yl)-6-(5-methyl-1H-indazol-4-yl)-2-((1-methyl-1H-pyrazol-4-yl)oxy)pyrimidine-5-carbonitrile]	++ (++ indicates binding activity from 50 to 85%)
C=CC(=O)N1CC2(CCN(c3nc(OCCN4CCCC4=O)nc(-c4c(C)ccc5[nH]ncc45)c3C#N)C2)C1 [Compound I-20, 4-(2-acryloyl-2,6-diazaspiro[3.4]octan-6-yl)-6-(5-methyl-1H-indazol-4-yl)-2-(2-(2-oxopyrrolidin-1-yl)ethoxy)pyrimidine-5-carbonitrile]	++ (++ indicates binding activity from 50 to 85%)
